{"source": "patent US8519123B2", "about": "“Pyrrolo[2,1-C][1,4]benzodiazepine linked imidazo[1,5-A]pyridine conjugates as potential antitumour agents and process for the preparation thereof” (Council of Scientific and Industrial Research, priority 2010, dated 2013)", "key": {"calf thymus DNA (CT-DNA)": {"system": "calf thymus DNA (CT-DNA)", "test": "Thermal denaturation studies with duplex-form calf thymus DNA (DNA binding affinity)", "details": "[PBD]:[DNA] molar ratio 1:5, CT-DNA 100 μM, ligand 20 μM, sodium phosphate buffer pH 7.00; for (ΔTm ° C.) after incubation at 37° C. for 0 h: 0 h incubation at 37° C.; for (ΔTm ° C.) after incubation at 37° C. for 18 h: 18 h incubation at 37° C.", "experimental": "Compounds have been subjected to thermal denaturation studies with duplex-form calf thymus DNA (CT-DNA) using a modification of a reported procedure (Newman, M. S. Carcinog-compr. Surv. 1976, 1, 203; (b) Hecht, S. S.; Loy, M.; Hoffman, Carcinog-compr. Surv. 1976, 1, 325). Working solutions in aqueous buffer (10 mM NaH2PO4/Na2HPO4, 1 mM Na2EDTA, pH 7.00+0.01) containing CT-DNA (100 μm in phosphate) and the PBD (20 μm) have been prepared by addition of concentrated PBD solutions in DMSO to obtain a fixed [PBD]/[DNA] molar ratio of 1:5. The DNA-PBD solutions have been incubated at 37° C. for 0 and 18 h prior to analysis. Samples have been monitored at 260 nm using a Beckman DU-800 spectrophotometer fitted with high performance temperature controller, and heated at 1° C. min^−1 in the 40-110° C. range. DNA helix→coil transition temperatures (Tm) have been obtained from the maxima in the d(A260)/dT derivative plots. Drug-induced alterations in DNA melting behavior are given by: ΔTm=Tm(DNA+PBD)−Tm(DNA alone), where the Tm value for the PBD-free CT-DNA is 69.1±0.01.\nThe DNA binding activity for these novel C8-linked imidazo[1,5-a]pyridine PBD hybrids has been examined by thermal denaturation studies using calf thymus (CT) DNA. […] The data for the compounds 7a-l is included in Table 1 for comparison."}, "[1]": {"system": "breast cancer cell line (MCF-7)", "test": "In vitro cytotoxicity, MTT assay, 48 h continuous drug exposure", "assay_type": "cell-based, human", "details": "48 h exposure", "experimental": "(§1) In vitro biological activity studies were carried out at the pharmacology division, IICT, Hyderabad. The compounds were evaluated for in vitro anticancer activity against five tumour cell lines derived from five cancer types (breast, cervix, mouse melanoma, lung and liver cancer) as shown in Table 2. For each compound, dose response curves for each cell line were measured at a minimum of five concentrations at 10 fold dilutions. A protocol of 48 h continuous drug exposure was used and a MTT assay was used to estimate cell viability or growth. The concentration causing 50% inhibition (IC50) compared with the control was calculated. Compounds 7a-7l have been evaluated for their in vitro cytotoxicity in five cell lines from five human cancer types. The results are expressed as IC50 determined relative to that of untreated control cells (Table-2)."}, "[2]": {"system": "lung cancer cell line (A549)", "test": "In vitro cytotoxicity, MTT assay, 48 h continuous drug exposure", "assay_type": "cell-based, human", "details": "A549 cells, 48 h exposure", "experimental": "as §1"}, "[3]": {"system": "cervical cancer cell line (Hela)", "test": "In vitro cytotoxicity, MTT assay, 48 h continuous drug exposure", "assay_type": "cell-based, human", "details": "Hela cells, 48 h exposure", "experimental": "as §1"}, "[4]": {"system": "liver cancer cell line (Hepg2)", "test": "In vitro cytotoxicity, MTT assay, 48 h continuous drug exposure", "assay_type": "cell-based, human", "details": "Hepg2 cells, 48 h exposure", "experimental": "as §1"}, "[5]": {"system": "mouse melanoma cancer cell line (B16)", "test": "In vitro cytotoxicity, MTT assay, 48 h continuous drug exposure", "assay_type": "cell-based", "details": "B16 cells, 48 h exposure", "experimental": "as §1"}, "[6]": {"details": "Homo sapiens, MCF7, MCF-7 cells"}}}
{"compound": "O=C(c1nc(-c2ccccc2)n2ccccc12)N1CCNCC1", "note": "[4a, (3-phenylimidazo[1,5-a]pyridin-1-yl)(piperazino)methanone]", "values": [{"measurement": "(ΔTm ° C.) after incubation at 37° C. for 0 h", "setting": "calf thymus DNA (CT-DNA)", "result": 1.0, "unit": "°C"}, {"measurement": "(ΔTm ° C.) after incubation at 37° C. for 18 h", "setting": "calf thymus DNA (CT-DNA)", "result": 1.2, "unit": "°C"}, {"measurement": "IC50", "setting": "[1]; [6]", "result": "> 100000", "unit": "nM"}, {"measurement": "IC50", "setting": "[2]; Homo sapiens", "result": "> 100000", "unit": "nM"}, {"measurement": "IC50", "setting": "[3]; Homo sapiens", "result": "> 100000", "unit": "nM"}, {"measurement": "IC50", "setting": "[4]; Homo sapiens", "result": "> 100000", "unit": "nM"}, {"measurement": "IC50", "setting": "[5]; Mus musculus", "result": "> 100000", "unit": "nM"}]}
{"compound": "COc1ccc(-c2nc(C(=O)N3CCNCC3)c3ccccn23)cc1", "note": "[4b, [3-(4-methoxyphenyl)imidazo[1,5-a]pyridin-1-yl](piperazino)methanone]", "values": [{"measurement": "(ΔTm ° C.) after incubation at 37° C. for 0 h", "setting": "calf thymus DNA (CT-DNA)", "result": 1.1, "unit": "°C"}, {"measurement": "(ΔTm ° C.) after incubation at 37° C. for 18 h", "setting": "calf thymus DNA (CT-DNA)", "result": 1.2, "unit": "°C"}, {"measurement": "IC50", "setting": "[1]; [6]", "result": "> 100000", "unit": "nM"}, {"measurement": "IC50", "setting": "[2]; Homo sapiens", "result": "> 100000", "unit": "nM"}, {"measurement": "IC50", "setting": "[3]; Homo sapiens", "result": "> 100000", "unit": "nM"}, {"measurement": "IC50", "setting": "[4]; Homo sapiens", "result": "> 100000", "unit": "nM"}, {"measurement": "IC50", "setting": "[5]; Mus musculus", "result": "> 100000", "unit": "nM"}]}
{"compound": "O=C(c1nc(-c2ccc(C(F)(F)F)cc2)n2ccccc12)N1CCNCC1", "note": "[4c, piperazino3-[4-(trifluoromethyl)phenyl]imidazo[1,5-a]pyridin-1-ylmethanone]", "values": [{"measurement": "(ΔTm ° C.) after incubation at 37° C. for 0 h", "setting": "calf thymus DNA (CT-DNA)", "result": 0.1, "unit": "°C"}, {"measurement": "(ΔTm ° C.) after incubation at 37° C. for 18 h", "setting": "calf thymus DNA (CT-DNA)", "result": 0.4, "unit": "°C"}, {"measurement": "IC50", "setting": "[1]; [6]", "result": "> 100000", "unit": "nM"}, {"measurement": "IC50", "setting": "[2]; Homo sapiens", "result": "> 100000", "unit": "nM"}, {"measurement": "IC50", "setting": "[3]; Homo sapiens", "result": "> 100000", "unit": "nM"}, {"measurement": "IC50", "setting": "[4]; Homo sapiens", "result": "> 100000", "unit": "nM"}, {"measurement": "IC50", "setting": "[5]; Mus musculus", "result": "> 100000", "unit": "nM"}]}
{"compound": "COc1cc2c(cc1OCCCN1CCN(C(=O)c3nc(-c4ccccc4)n4ccccc34)CC1)N=C[C@@H]1CCCN1C2=O", "note": "[7a, (11aS)-7-methoxy-8-(3-4-[(3-phenylimidazo[1,5-a]pyridin-yl)carbonyl]piperazinopropoxy)-2,3,5,11a-tetrahydro-1H-benzo[e]pyrrolo[1,2-a]azepin-5-one]", "values": [{"measurement": "(ΔTm ° C.) after incubation at 37° C. for 0 h", "setting": "calf thymus DNA (CT-DNA)", "result": 6.0, "unit": "°C"}, {"measurement": "(ΔTm ° C.) after incubation at 37° C. for 18 h", "setting": "calf thymus DNA (CT-DNA)", "result": 8.9, "unit": "°C"}, {"measurement": "IC50", "setting": "[1]; [6]", "result": 1200, "unit": "nM"}, {"measurement": "IC50", "setting": "[2]; Homo sapiens", "result": 7100, "unit": "nM"}, {"measurement": "IC50", "setting": "[3]; Homo sapiens, HeLa, 48 h", "result": 2100, "unit": "nM"}, {"measurement": "IC50", "setting": "[4]; Homo sapiens, HepG2, 48 h", "result": 2700, "unit": "nM"}, {"measurement": "IC50", "setting": "[5]; Mus musculus", "result": 2800, "unit": "nM"}]}
{"compound": "COc1cc2c(cc1OCCCCN1CCN(C(=O)c3nc(-c4ccccc4)n4ccccc34)CC1)N=C[C@@H]1CCCN1C2=O", "note": "[7b, (11aS)-7-methoxy-8-(4-4-[(3-phenylimidazo[1,5-a]pyridin-yl)carbonyl]piperazinobutoxy)-2,3,5,11a-tetrahydro-1H-benzo[e]pyrrolo[1,2-a]azepin-5-one]", "values": [{"measurement": "(ΔTm ° C.) after incubation at 37° C. for 0 h", "setting": "calf thymus DNA (CT-DNA)", "result": 6.0, "unit": "°C"}, {"measurement": "(ΔTm ° C.) after incubation at 37° C. for 18 h", "setting": "calf thymus DNA (CT-DNA)", "result": 8.9, "unit": "°C"}, {"measurement": "IC50", "setting": "[1]; [6]", "result": 2870, "unit": "nM"}, {"measurement": "IC50", "setting": "[2]; Homo sapiens", "result": 15900, "unit": "nM"}, {"measurement": "IC50", "setting": "[3]; Homo sapiens, HeLa, 48 h", "result": 1240, "unit": "nM"}, {"measurement": "IC50", "setting": "[4]; Homo sapiens, HepG2, 48 h", "result": 2830, "unit": "nM"}, {"measurement": "IC50", "setting": "[5]; Mus musculus", "result": 2670, "unit": "nM"}]}
{"compound": "COc1cc2c(cc1OCCCCCN1CCN(C(=O)c3nc(-c4ccccc4)n4ccccc34)CC1)N=C[C@@H]1CCCN1C2=O", "note": "[7c]", "values": [{"measurement": "(ΔTm ° C.) after incubation at 37° C. for 0 h", "setting": "calf thymus DNA (CT-DNA)", "result": 7.0, "unit": "°C"}, {"measurement": "(ΔTm ° C.) after incubation at 37° C. for 18 h", "setting": "calf thymus DNA (CT-DNA)", "result": 9.0, "unit": "°C"}, {"measurement": "IC50", "setting": "[1]; [6]", "result": 2120, "unit": "nM"}, {"measurement": "IC50", "setting": "[3]; Homo sapiens, HeLa, 48 h", "result": 1660, "unit": "nM"}, {"measurement": "IC50", "setting": "[4]", "result": 3860, "unit": "nM"}, {"measurement": "IC50", "setting": "[4]; Homo sapiens, HepG2, 48 h", "result": 2700, "unit": "nM"}, {"measurement": "IC50", "setting": "[5]; Mus musculus", "result": 1870, "unit": "nM"}]}
{"compound": "COc1cc2c(cc1OCCCCCCN1CCN(C(=O)c3nc(-c4ccccc4)n4ccccc34)CC1)N=C[C@@H]1CCCN1C2=O", "note": "[7d]", "values": [{"measurement": "(ΔTm ° C.) after incubation at 37° C. for 0 h", "setting": "calf thymus DNA (CT-DNA)", "result": 7.0, "unit": "°C"}, {"measurement": "(ΔTm ° C.) after incubation at 37° C. for 18 h", "setting": "calf thymus DNA (CT-DNA)", "result": 8.0, "unit": "°C"}, {"measurement": "IC50", "setting": "[1]; [6]", "result": 3310, "unit": "nM"}, {"measurement": "IC50", "setting": "[2]; Homo sapiens", "result": 12400, "unit": "nM"}, {"measurement": "IC50", "setting": "[3]; Homo sapiens, HeLa, 48 h", "result": 3970, "unit": "nM"}, {"measurement": "IC50", "setting": "[4]; Homo sapiens, HepG2, 48 h", "result": 3060, "unit": "nM"}, {"measurement": "IC50", "setting": "[5]; Mus musculus", "result": 1490, "unit": "nM"}]}
{"compound": "COc1cccc2c1C(=O)c1c(O)c3c(c(O)c1C2=O)C[C@@](O)(C(=O)CO)C[C@@H]3O[C@H]1C[C@H](N)[C@H](O)[C@H](C)O1", "note": "[ADR, adiramycin]", "values": [{"measurement": "IC50", "setting": "[1]; MCF-7 cells", "result": 1600, "unit": "nM"}, {"measurement": "IC50", "setting": "[2]", "result": 2900, "unit": "nM"}, {"measurement": "IC50", "setting": "[3]", "result": 130, "unit": "nM"}, {"measurement": "IC50", "setting": "[4]", "result": 1850, "unit": "nM"}, {"measurement": "IC50", "setting": "[5]", "result": 340, "unit": "nM"}]}
{"compound": "C1=CC2=CN=c3ccccc3=CN2C1", "note": "[DC-81, pyrrolo[2,1-c][1,4]benzodiazepine]", "values": [{"measurement": "(ΔTm ° C.) after incubation at 37° C. for 0 h", "setting": "calf thymus DNA (CT-DNA)", "result": 0.3, "unit": "°C"}, {"measurement": "(ΔTm ° C.) after incubation at 37° C. for 18 h", "setting": "calf thymus DNA (CT-DNA)", "result": 0.7, "unit": "°C"}, {"measurement": "IC50", "setting": "[1]; [6]", "result": 2190, "unit": "nM"}, {"measurement": "IC50", "setting": "[2]; Homo sapiens", "result": 380, "unit": "nM"}, {"measurement": "IC50", "setting": "[3]; Homo sapiens, HeLa, 48 h", "result": 2140, "unit": "nM"}, {"measurement": "IC50", "setting": "[4]; Homo sapiens, HepG2, 48 h", "result": 2200, "unit": "nM"}, {"measurement": "IC50", "setting": "[5]; Mus musculus", "result": 1830, "unit": "nM"}]}
